Consider 7 molecules from patent US20120283228A1, “2alpha-Methyl and 2beta-Methyl Analogs of 19,26-Dinor-1alpha,25-Dihydroxyvitamin D3 and Their Uses” (WISCONSIN ALUMNI RESEARCH FOUNDATION, priority 2011, published 2012).

“Also recorded” adds a separate entry of the source. Read-outs that look alike come from different tables or passages of the source.

Assay [1] deals with Human promyelocytic leukemia (HL60) cells. The assay can be described thus: HL-60 differentiation (nitro blue tetrazolium reduction). Format: cell-based. Particulars: for EC50: HL-60 cells, read-out: EC50, ability to promote HL-60 cell differentiation. The procedure:
Serial dilutions were prepared so that a range of drug concentrations could be tested without changing the final concentration of ethanol (≦0.2%) present in the cell cultures.
Human promyelocytic leukemia (HL60) cells were grown in RPMI-1640 medium containing 10% fetal bovine serus. The cells were incubated at 37° C. in the presence of 5% CO2.
HL60 cells were plated at 1.2×10^5 cells/ml. Eighteen hours after plating, cells in duplicate were treated with drug. Four days later, the cells were harvested and a nitro blue tetrazolium reduction assay was performed (Collins et al., 1979; J. Ex. Med. 149:969-974). The percentage of differentiated cells was determined by counting a total of 200 cells and recording the number that contained intracellular black-blue formazan deposits Verification of differentiation to monocytic cells was determined by measuring phagocytic activity (data not shown).

For assay [2], the system named is vitamin D-deficient rats. The assay can be described thus: Intestinal calcium transport (everted gut sac method). The assay is classed as in vivo, Sprague-Dawley rats. The protocol: (§1) Male, weanling Sprague-Dawley rats were placed on Diet 11 (0.47% Ca) diet +AEK for one week followed by Diet 11 (0.02% Ca) +AEK for 3 weeks. The rats were then switched to a diet containing 0.47% Ca for one week followed by two, weeks on a diet containing 0.02% Ca. Dose administration began during the last week on 0.02% calcium diet. Four consecutive ip doses were given approximately 24 hours apart. Twenty-four hours after the last dose, blood was collected from the severed neck and the concentration of serum calcium determined as a measure of bone calcium mobilization. The first 10 cm of the intestine was also collected for intestinal calcium transport analysis using the everted gut sac method.

Assay [3] deals with vitamin D-deficient rats. Put plainly: Bone calcium mobilization (serum calcium). Format: in vivo, Sprague-Dawley rats. Particulars: rats on low calcium diet (0.02%); for mobilization of bone calcium at 7,020 pmol/day: 7,020 pmol/day for 4 consecutive days; for mobilization of bone calcium at 35,100 pmol/day: 35,100 pmol/day for 4 consecutive days; for activity in mobilizing calcium from bone / serum calcium levels: all dosages tested; for times less potent than 1,25(OH)2D3 in bone (bone calcium mobilization): 4 ip doses. The protocol: as §1

Assay [4] concerns 24-hydroxylase (24Ohase) gene promoter. Put plainly: In vitro transcription assay in ROS 17/2.8 (bone) cells, luciferase reporter. As to conditions: for EC50: ROS 17/2.8 cells, 24-hydroxylase promoter-luciferase, read-out: EC50, transcriptional activity in bone cells; for logs less transcriptional activity than 1α,25-dihydroxyvitamin D3 in bone cells / times less transcriptional activity than 1α,25-dihydroxyvitamin D3 in bone cells: less than 1,25(OH)2D3. The assay is classed as cell-based. The protocol: Transcription activity was measured in ROS 17/2.8 (bone) cells that were stably transfected with a 24-hydroxylase (24Ohase) gene promoter upstream of a luciferase reporter gene (Arbour et al., 1998). Cells were given a range of doses. Sixteen hours after dosing the cells were harvested and luciferase activities were measured using a luminometer.
RLU=relative luciferase units.
In general terms: A reporter such as luciferase makes a cellular process visible.

Assay [5] concerns the target T1, full-length recombinant rat vitamin D receptor (Rattus norvegicus, UniProt P13053).
T1 sequence (P13053 1-423): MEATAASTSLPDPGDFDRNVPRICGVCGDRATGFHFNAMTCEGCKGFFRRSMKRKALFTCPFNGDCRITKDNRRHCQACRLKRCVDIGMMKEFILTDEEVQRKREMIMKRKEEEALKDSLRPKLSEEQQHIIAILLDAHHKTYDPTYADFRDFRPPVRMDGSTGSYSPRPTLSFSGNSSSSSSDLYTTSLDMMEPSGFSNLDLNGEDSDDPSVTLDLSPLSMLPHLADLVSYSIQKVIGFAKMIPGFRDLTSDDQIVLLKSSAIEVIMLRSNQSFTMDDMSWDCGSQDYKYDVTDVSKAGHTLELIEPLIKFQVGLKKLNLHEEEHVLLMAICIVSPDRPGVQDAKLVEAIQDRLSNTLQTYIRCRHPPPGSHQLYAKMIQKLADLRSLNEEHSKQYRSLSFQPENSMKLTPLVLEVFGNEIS
Particulars: for Ki: read-out: Ki, ability to compete with [3H]-1,25(OH)2D3 for binding to the vitamin D receptor, full-length recombinant rat VDR.
Procedure: (§2) Full-length recombinant rat receptor was expressed in E. coli BL21 (DE3) Codon Plus RIL cells and purified to homogeneity using two different column chromatography systems. The first system was a nickel affinity resin that utilizes the C-terminal histidine tag on this protein. The protein that was eluted from this resin was further purified using ion exchange chromatography (S-Sepharose Fast Flow). Aliquots of the purified protein were quick frozen in liquid nitrogen and stored at −80° C. until use. For use in binding assays, the protein was diluted in TEDK50 (50 mM Tris, 1.5 mM EDTA, pH 7.4, 5 mM DTT, 150 mM KCl) with 0.1% Chaps detergent. The receptor protein and ligand concentration was optimized such that no more than 20% of the added radiolabeled ligand as bound to the receptor.
(§3) Radiolabeled and unlabeled ligands were added to 100 mcl of the diluted protein at a final ethanol concentration of ≦10%; mixed and incubated overnight on ice to reach binding equilibrium. The following day, 100 mcl of hydroxylapaptite slurry (50%) was added to each tube and mixed at 10-minute intervals for 30 minutes. The hydroxylapaptite was collected by centrifugation and then washed three times with Tris-EDTA buffer (50 mM Tris, 1.5 mM EDTA, pH 7.4) containing 0.5% Titron X-100. After the final wash, the pellets were transferred to scintillation vials containing 4 ml of Biosafe II scintillation cocktail, mixed and placed in a scintillation counter. Total binding was determined from the tubes containing only radiolabeled ligand.

Assay [6] has as its target T1, full-length recombinant rat vitamin D receptor. The assay can be described thus: biochemical. Particulars: ability to compete with [3H]-1,25(OH)2D3 for binding to the vitamin D receptor, full-length recombinant rat VDR.
Procedure: as §2, §3
The mark [7] stands for this setting: compared with 1,25(OH)2D3 at 780 pmol/day.
[8] abbreviates: rats on low calcium diet (0.02%).
The mark [9] stands for this setting: rats on low calcium diet (0.02%), 4 ip doses.

With `CC1[C@H](O)CC(=C/C=C2\CCC[C@]3(C)[C@@H]([C@H](C)CCC[C@@H](C)O)CC[C@@H]23)C[C@H]1O` (stereo partly drawn) [MY-2, (20R,25R)-2α-methyl-19,26-dinor-1α,25-dihydroxyvitamin D3], in assay [1], the “HL-60 differentiation potency as compared to 1,25(OH)2D3” value is recorded as “as potent as 1,25(OH)2D3; also recorded: little difference” and the EC50 (commonly the concentration that produces a half-maximal response) was determined as 2 nM. Further, the “intestinal calcium transport at 7,020 pmol/day” value with vitamin D-deficient rats [2] (setting [7]) is given as “some intestinal calcium transport activity, but still not to the same extent as 1,25(OH)2D3”. Moreover, in the assay on vitamin D-deficient rats [3], the “mobilization of bone calcium at 7,020 pmol/day” value was “did not result in mobilization of bone calcium”; the “mobilization of bone calcium at 35,100 pmol/day” value was “without any substantial effect”; the “activity in mobilizing calcium from bone / serum calcium levels” value (“activity … from bone / serum calcium levels” for short) was “little, if any, activity”; the “times less potent than 1,25(OH)2D3 in bone (bone calcium mobilization)” value is reported as “more than 50 times”. Besides, in assay [4], the “transcriptional activity in bone cells as compared to 1α,25-dihydroxyvitamin D3” value is given as “equivalent to 1α,25-dihydroxyvitamin D3; also recorded: about the same transcriptional activity” and the EC50 worked out at 0.4 nM. Moreover, in assay [5], the “binding to the receptor as compared to 1,25(OH)2D3” value is listed as “bound equally well; also recorded: equivalent” and the inhibitory constant (Ki) (commonly a dissociation constant, usually derived from enzyme kinetics or from competition with a known ligand) is 0.2 nM.
For the molecule `C=C1/C(=C\C=C2/CCC[C@]3(C)[C@@H]([C@H](C)CCCC(C)(C)O)CC[C@@H]23)C[C@@H](O)C[C@@H]1O` [1,25(OH)2D3, 1α,25-dihydroxyvitamin D3, reference compound], the EC50 in assay [1] came to 2 nM; in assay [4] it was 0.2 nM. For the same molecule, in the assay on vitamin D-deficient rats [2] (setting [8]), the “intestinal calcium transport activity” value is recorded as “significant activity”. For the same molecule, the “activity … from bone / serum calcium levels” value in the assay on vitamin D-deficient rats [3] is reported as “increased serum calcium levels”.
Consider `CC(O)CCCC(C)C1CCC2C(=CC=C3CC(O)C(C)C(O)C3)CCCC21C` (single isomer, unassigned) [TH-1], for which, in assay [1], the EC50 is 70 nM and the “logs less potent than 1,25(OH)2D3 on HL-60 differentiation” value turned out to be 3 log. The Ki in assay [6] was 5 nM. Further, the “intestinal calcium transport at 35,100 pmol/day” value in the assay on vitamin D-deficient rats [2] (setting [7]) is on record as “some intestinal calcium transport activity, but still not to the same extent as 1,25(OH)D3”. Also, in the assay on vitamin D-deficient rats [3], the “mobilization of bone calcium at 35,100 pmol/day” value is given as “did not result in mobilization of bone calcium”; the “activity … from bone / serum calcium levels” value is “little, if any, activity”; the “times less potent than 1,25(OH)2D3 in bone (bone calcium mobilization)” value is “more than 50 times”. In assay [4], the “logs less transcriptional activity than 1α,25-dihydroxyvitamin D3 in bone cells” value is recorded as “about 2 log” and the “times less transcriptional activity than 1α,25-dihydroxyvitamin D3 in bone cells” value is reported as about 20 times.
With `CC(O)CCCC(C)C1CCC2C(=CC=C3CC(O)C(C)C(O)C3)CCCC21C` (single isomer, unassigned) [TA-2], the EC50 in assay [1] is 0.5 nM. For the same molecule, the “intestinal calcium transport at 7,020 pmol/day” value in the assay with vitamin D-deficient rats [2] (setting [7]) was “some intestinal calcium transport activity, but still not to the same extent as 1,25(OH)2D3”. Also, the “logs less potent than 1,25(OH)2D3 in the intestine” value in the assay with vitamin D-deficient rats [2] (setting [9]) is “approximately 1 log and one”. In the assay on vitamin D-deficient rats [3], the “mobilization of bone calcium at 7,020 pmol/day” value is on record as “did not result in mobilization of bone calcium”; the “mobilization of bone calcium at 35,100 pmol/day” value is given as “without any substantial effect”; the “activity … from bone / serum calcium levels” value is given as “little, if any, activity”; the “times less potent than 1,25(OH)2D3 in bone (bone calcium mobilization)” value is recorded as “more than 50 times”. For the same molecule, the EC50 in assay [4] was determined as 0.08 nM. For the same molecule, the “times more transcriptional activity than 1α,25-dihydroxyvitamin D3 in bone cells” value in assay [4] (more than 1,25(OH)2D3) is given as “about 4 times”. The “binding to the receptor as compared to 1,25(OH)2D3” value in assay [5] is “bound equally well; also recorded: equivalent”.
Regarding `CC1[C@H](O)CC(=C/C=C2\CCC[C@]3(C)[C@@H]([C@H](C)CCC[C@@H](C)O)CC[C@@H]23)C[C@H]1O` (stereo partly drawn) [DW-1, (20R,25R)-2β-methyl-19,26-dinor-1α,25-dihydroxyvitamin D3], in assay [1], the EC50 amounted to 60 nM and the “times less potent than 1,25(OH)2D3 on HL-60 differentiation” value is “about 30 times”. Further, the “intestinal calcium transport at 35,100 pmol/day” value in the assay on vitamin D-deficient rats [2] (setting [7]) is on record as “some intestinal calcium transport activity, but still not to the same extent as 1,25(OH)2D3”. Besides, in the assay with vitamin D-deficient rats [3], the “mobilization of bone calcium at 7,020 pmol/day” value is on record as “did not result in mobilization of bone calcium”; the “mobilization of bone calcium at 35,100 pmol/day” value is recorded as “without any substantial effect”; the “activity … from bone / serum calcium levels” value is “little, if any, activity”; the “times less potent than 1,25(OH)2D3 in bone (bone calcium mobilization)” value is “more than 50 times”. Also, in assay [4], the EC50 was determined as 20 nM, the “logs less transcriptional activity than 1α,25-dihydroxyvitamin D3 in bone cells” value was “about 2 log” and the “times less transcriptional activity than 1α,25-dihydroxyvitamin D3 in bone cells” value is about 20 times. In addition, in assay [5], the Ki was 1 nM.
As for `CC1[C@H](O)CC(=C/C=C2\CCC[C@]3(C)[C@@H]([C@@H](C)CCC[C@H](C)O)CC[C@@H]23)C[C@H]1O` (stereo partly drawn) [IB-1, (20S,25S)-2β-methyl-19,26-dinor-1α,25-dihydroxyvitamin D3], in assay [1], the EC50 turned out to be 20 nM; the “logs less potent than 1,25(OH)2D3 on HL-60 differentiation” value is “one and about one”; the “times less potent than 1,25(OH)2D3 on HL-60 differentiation” value is listed as 10 times. In addition, the “intestinal calcium transport at 35,100 pmol/day” value in the assay on vitamin D-deficient rats [2] (setting [7]) is on record as “some intestinal calcium transport activity; but still not to the same extent as 1,25(OH)2D3”. Moreover, in the assay on vitamin D-deficient rats [3], the “mobilization of bone calcium at 35,100 pmol/day” value is given as “did not result in mobilization of bone calcium”; the “activity … from bone / serum calcium levels” value is on record as “little, if any, activity”; the “times less potent than 1,25(OH)2D3 in bone (bone calcium mobilization)” value is reported as “more than 50 times”. Further, in assay [4], the EC50 is 7 nM, the “logs less transcriptional activity than 1α,25-dihydroxyvitamin D3 in bone cells” value is listed as “about 3 log” and the “times less transcriptional activity than 1α,25-dihydroxyvitamin D3 in bone cells” value is recorded as “approximately 30 times”. In addition, the Ki in assay [5] came out at 0.8 nM.
Regarding `CC(O)CCCC(C)C1CCC2C(=CC=C3CC(O)C(C)C(O)C3)CCCC21C` (single isomer, unassigned) [FD-1], in assay [1], the EC50 came to 6 nM. Also, the Ki in assay [6] came to 0.4 nM. For the same molecule, the “intestinal calcium transport at 21,060 pmol/day” value in the assay with vitamin D-deficient rats [2] (21,060 pmol/day for 4 consecutive days, compared with 1,25(OH)2D3 at 780 pmol/day) is given as “some intestinal calcium transport, but hot to the same extent as 1,25(OH)2D3”. Further, in the assay on vitamin D-deficient rats [2] (setting [8]), the “intestinal calcium transport activity” value is “some, but very little, intestinal calcium transport activity”. The “times less potent than 1,25(OH)2D3 in stimulating calcium transport in the gut” value with vitamin D-deficient rats [2] (setting [9]) is listed as “approximately 40 times”. The “mobilization of bone calcium at 21,060 pmol/day” value in the assay on vitamin D-deficient rats [3] (21,060 pmol/day for 4 consecutive days) is given as “did not result in mobilization of bone calcium”. Also, in the assay with vitamin D-deficient rats [3], the “activity … from bone / serum calcium levels” value is “little, if any, activity” and the “times less potent than 1,25(OH)2D3 in bone (bone calcium mobilization)” value was “more than 40 times”. Besides, in assay [4], the EC50 was 1 nM, the “logs less transcriptional activity than 1α,25-dihydroxyvitamin D3 in bone cells” value is “about 1 log” and the “times less transcriptional activity than 1α,25-dihydroxyvitamin D3 in bone cells” value is on record as “about 10 times”.
